Assay results published in patent US10940139B2, “Compounds that interact with the Ras superfamily for the treatment of cancers, inflammatory diseases, rasopathies, and fibrotic disease” (Shy Therapeutics LLC, priority 2017, dated 2021).

Experiments:
Format in all cases: cell-based
[1] = system: MIA-PACA2 pancreatic cancer cell lines; experiment: Cell proliferation assay (CellTiter 96 AQueous One); conditions: Homo sapiens, MIA PaCa-2; at 30 μM, MIA-PACA2
Method: Cell lines: Tumor-derived pancreatic cancer cell lines MIA-PACA2 were purchased from ATCC and grown in complete DMEM-High Glucose medium supplemented with penicillin (100 U/mL), streptomycin (100 μg/mL), and 10% heat-inactivated FBS at 37° C. in a humidified incubator with 5% CO2.
Method: Cells are plated at 1000 cells/well density in 96-wells plate, starved ON, and the next day tested small molecules are added to the cells in the final concentration of 30 μM with 0.3% DMSO 3 hours prior to 10% FBS addition. After serum addition cells are incubated for 6 days at 37° C. in a humidified incubator with 5% CO2. For IC50 value determination, serial dilutions of compounds were added to cells under the same conditions.
Assay: At the end of the incubation period, cell cultures are tested using the CellTiter 96® AQueous One Solution Cell Proliferation Assay kit (Promega Corporation, Madison, Wis.) according to the manufacturer specifications. Briefly, assay is performed by adding 20 μl of the CellTiter 96 Aqueous One Solution Reagent directly to culture wells, followed by for 1-4 hours incubation at 37° C. in a humidified incubator with 5% CO2. At the end of incubation time, absorbance at 492 nm is recorded with the 96-well plate reader Eppendorf AF2200, and degree of small molecule-dependent proliferation inhibition is calculated from raw data assuming No Serum cells value as 100%.

[2] = system: TNFα production in RAW 264.7 macrophage cell line; experiment: Mouse TNF alpha quantification assay (LPS-stimulated macrophages, ELISA); conditions: RAW264.7, RAW 264.7 murine leukemia virus transformed macrophage cell lines, LPS stimulation, read-out: TNF-α % Inhibition at 30 μM
[3] = system: IL6 production in RAW 264.7 macrophage cell line; experiment: Mouse IL6 quantification assay (LPS-stimulated macrophages, ELISA); conditions: RAW264.7, RAW 264.7 murine leukemia virus transformed macrophage cell lines, LPS stimulation, read-out: IL-6 % Inhibition at 30 μM

COc1cc(CNc2nc(-c3ccccn3)nc3scc(-c4ccccc4)c23)ccc1OCC(N)=O
inhibition at 30 µM [1]: 76 to 100%

OCCn1ccc2c1CCCC2Nc1nc(-c2ccccn2)nc2scc(-c3ccccc3)c12 (centres unmarked)
inhibition at 30 µM [1]: 76 to 100%

Cc1[nH]nc(CCCN(C)c2nc(-c3ccccn3)nc3sc(-c4ccccc4)cc23)c1C#N
inhibition at 30 µM [1]: 76 to 100%

CC(=O)C1CCN(c2nc(-c3ccccn3)nc3scc(-c4ccccc4)c23)CC1
inhibition at 30 µM [1]: 76 to 100%

O=C(COn1ccnc1)Nc1nc(-c2ccccn2)nc2sccc12
inhibition at 30 µM [1]: 76 to 100%

O=C(CCc1cnn(-c2ccccc2)c1)Nc1nnc(-c2ccccn2)[nH]1 [drawing 1383]
inhibition at 30 µM [1]: 76 to 100%

CC(C)NC(=O)Nc1cccc(C(=O)Nc2nnc(-c3ccccn3)[nH]2)c1 [drawing 1384]
inhibition at 30 µM [1]: 25 to 50%

COc1ccc(CCC(=O)Nc2nnc(-c3ccccn3)[nH]2)cc1F [drawing 1385]
inhibition at 30 µM [1]: 1 to 25%

O=C(Nc1nnc(-c2ccccn2)[nH]1)c1ccc2c(c1)CCO2 [drawing 1386]
inhibition at 30 µM [1]: 76 to 100%

O=C(Cc1c[nH]c2ccccc12)Nc1nnc(-c2ccccn2)[nH]1 [drawing 1387]
inhibition at 30 µM [1]: 1 to 25%

O=C(COc1ccc(F)cc1F)Nc1nnc(-c2ccccn2)[nH]1 [drawing 1388]
inhibition at 30 µM [1]: 51 to 75%

O=C(Nc1nnc(-c2ccccn2)[nH]1)C1CCn2c(cnc2-c2ccccc2)C1 (centres unmarked) [drawing 1389]
inhibition at 30 µM [1]: 1 to 25%

COc1cccc(CC(=O)Nc2nnc(-c3ccccn3)[nH]2)c1 [drawing 1390]
inhibition at 30 µM [1]: 25 to 50%

Cc1ccc(C(=O)Nc2nnc(-c3ccccn3)[nH]2)cc1S(C)(=O)=O [drawing 1391]
inhibition at 30 µM [1]: 51 to 75%

O=C(CCn1ccc2ccccc21)Nc1nnc(-c2ccccn2)[nH]1 [drawing 1392]
inhibition at 30 µM [1]: 51 to 75%

Cc1oc(-c2ccccc2)nc1C(=O)Nc1nnc(-c2ccccn2)[nH]1 [drawing 1393]
inhibition at 30 µM [1]: 76 to 100%

O=C(Nc1nnc(-c2ccccn2)[nH]1)c1ccn(-c2ccccc2)n1 [drawing 1394]
inhibition at 30 µM [1]: 76 to 100%

Cc1c(C(=O)Nc2nnc(-c3ccccn3)[nH]2)oc2ccccc12 [drawing 1395]
inhibition at 30 µM [1]: 76 to 100%

CC(Oc1ccccc1Cl)C(=O)Nc1nnc(-c2ccccn2)[nH]1 (centres unmarked) [drawing 1396]
inhibition at 30 µM [1]: 76 to 100%

O=C(Nc1nnc(-c2ccccn2)[nH]1)c1ccn(-c2cccc(F)c2)n1 [drawing 1397]
inhibition at 30 µM [1]: 76 to 100%

COc1ccc(CCC(=O)Nc2nnc(-c3ccccn3)[nH]2)cc1 [drawing 1398]
inhibition at 30 µM [1]: 51 to 75%

COc1ccc2c(ccn2CC(=O)Nc2nnc(-c3ccccn3)[nH]2)c1 [drawing 1399]
inhibition at 30 µM [1]: 76 to 100%

O=C(CCc1c[nH]c2ccccc12)Nc1nnc(-c2ccccn2)[nH]1 [drawing 1400]
inhibition at 30 µM [1]: 51 to 75%

O=C(Nc1nnc(-c2ccccn2)[nH]1)c1ccc2ccccc2n1 [drawing 1401]
inhibition at 30 µM [1]: 25 to 50%

Cc1ccc(CC(=O)Nc2nnc(-c3ccccn3)[nH]2)cc1 [drawing 1402]
inhibition at 30 µM [1]: 25 to 50%

Cn1cc(-c2nc(C(=O)Nc3nnc(-c4ccccn4)[nH]3)cs2)cn1 [drawing 1403]
inhibition at 30 µM [1]: 76 to 100%

Cc1c(C(=O)Nc2nnc(-c3ccccn3)[nH]2)oc2c1C(=O)CCC2 [drawing 1404]
inhibition at 30 µM [1]: 76 to 100%

O=C(Nc1nnc(-c2ccccn2)[nH]1)c1ccc(CN2C(=O)CCC2=O)cc1 [drawing 1405]
inhibition at 30 µM [1]: 1 to 25%

CN(Cc1nnc(-c2ccccc2Cl)o1)Cc1ccccc1C(F)(F)F [drawing 1406]
inhibition at 30 µM [1]: 25 to 50%

O=C(CC1C=CCC1)Nc1nnc(-c2ccccn2)[nH]1 (centres unmarked) [drawing 1407]
inhibition at 30 µM [1]: 51 to 75%

COc1ccc(CC(=O)Nc2nnc(-c3ccccn3)[nH]2)cc1 [drawing 1408]
inhibition at 30 µM [1]: 76 to 100%

O=C(Cc1cccs1)Nc1nnc(-c2ccccn2)[nH]1 [drawing 1409]
inhibition at 30 µM [1]: 1 to 25%

O=C(Nc1nnc(-c2ccccn2)[nH]1)c1ccc(Oc2ccccc2)nc1 [drawing 1410]
inhibition at 30 µM [1]: 51 to 75%

Cc1noc(C)c1CC(=O)Nc1nnc(-c2ccccn2)[nH]1 [drawing 1411]
inhibition at 30 µM [1]: 25 to 50%

CC(C)(C)c1noc(CCC(=O)Nc2nnc(-c3ccccn3)[nH]2)n1 [drawing 1412]
inhibition at 30 µM [1]: 25 to 50%

O=C(Cc1ccccc1)NCCC(=O)Nc1nnc(-c2ccccn2)[nH]1 [drawing 1413]
inhibition at 30 µM [1]: 1 to 25%

O=C(Nc1nnc(-c2ccccn2)[nH]1)c1cccc(NC(=O)C2CCCO2)c1 (centres unmarked) [drawing 1414]
inhibition at 30 µM [1]: 51 to 75%

O=C(CC1CCCC1)NCC(=O)Nc1nnc(-c2ccccn2)[nH]1 [drawing 1415]
inhibition at 30 µM [1]: 1 to 25%

O=C(Nc1nnc(-c2ccccn2)[nH]1)c1ncoc1-c1cccs1 [drawing 1416]
inhibition at 30 µM [1]: 76 to 100%

O=C(CCNC(=O)c1ccco1)Nc1nnc(-c2ccccn2)[nH]1 [drawing 1417]
inhibition at 30 µM [1]: 76 to 100%

CC(C)COC(C)C(=O)Nc1nnc(-c2ccccn2)[nH]1 (centres unmarked) [drawing 1418]
inhibition at 30 µM [1]: 76 to 100%

Cc1ccc(CC(=O)Nc2nnc(-c3ccccn3)[nH]2)cn1 [drawing 1419]
inhibition at 30 µM [1]: 51 to 75%

CCn1nnc2cc(C(=O)Nc3nnc(-c4ccccn4)[nH]3)ccc21 [drawing 1420]
inhibition at 30 µM [1]: 51 to 75%

O=C(Nc1nnc(-c2ccccn2)[nH]1)c1nc(N2CCOCC2)ncc1Cl [drawing 1421]
inhibition at 30 µM [1]: 76 to 100%

O=C(Nc1nnc(-c2ccccn2)[nH]1)C1Cc2ccccc2O1 (centres unmarked) [drawing 1422]
inhibition at 30 µM [1]: 1 to 25%

CC(Oc1ccccc1C#N)C(=O)Nc1nnc(-c2ccccn2)[nH]1 (centres unmarked) [drawing 1423]
inhibition at 30 µM [1]: 76 to 100%

CC(Oc1cccc(C#N)c1)C(=O)Nc1nnc(-c2ccccn2)[nH]1 (centres unmarked) [drawing 1424]
inhibition at 30 µM [1]: 76 to 100%

Cc1sc2c(O)nc(-c3nccn3C)nc2c1-c1ccc(OC(C)C)c(F)c1 [drawing 2437]
inhibition at 30 µM [2]: 0%
inhibition at 30 µM [3]: 51 to 75%

CC(C)Oc1ccc(-c2c(-c3ccccc3)sc3c(O)nc(-c4nccn4C)nc23)cc1F [drawing 2438]
inhibition at 30 µM [2]: 0%
inhibition at 30 µM [3]: 1 to 25%

COc1ccc(-c2csc3c(O)nc(-c4nccn4C)nc23)cn1 [drawing 2440]
inhibition at 30 µM [2]: 76 to 100%
inhibition at 30 µM [3]: 76 to 100%

Cn1ccnc1-c1nc(O)c2scc(-c3ccccc3)c2n1 [drawing 2441]
inhibition at 30 µM [2]: 51 to 75%
inhibition at 30 µM [3]: 76 to 100%

Cn1ccnc1-c1nc(O)c2scc(-c3ccccc3Cl)c2n1 [drawing 2442]
inhibition at 30 µM [2]: 1 to 25%
inhibition at 30 µM [3]: 51 to 75%

Cn1ccnc1-c1nc(O)c2scc(-c3ccc(F)cc3F)c2n1 [drawing 2443]
inhibition at 30 µM [2]: 1 to 25%
inhibition at 30 µM [3]: 51 to 75%

Cn1ccnc1-c1nc(O)c2scc(-c3cccc(Cl)c3)c2n1 [drawing 2444]
inhibition at 30 µM [2]: 0%
inhibition at 30 µM [3]: 51 to 75%

COC(C)(C)c1ccc(-c2csc3c(O)nc(-c4nccn4C)nc23)cc1 [drawing 2445]
inhibition at 30 µM [2]: 0%
inhibition at 30 µM [3]: 26 to 50%

Cn1ccnc1-c1nc(O)c2scc(-c3ccc(C(C)(C)C)cc3)c2n1 [drawing 2446]
inhibition at 30 µM [2]: 0%
inhibition at 30 µM [3]: 1 to 25%

COCCNc1nc(-c2ccccn2)nc2sc(-c3ccccc3)c(-c3ccccn3)c12 [drawing 2447]
inhibition at 30 µM [2]: 0%
inhibition at 30 µM [3]: 0%

Cc1sc2c(O)nc(-c3nccn3C)nc2c1-c1ccc(F)cc1F [drawing 2448]
inhibition at 30 µM [2]: 0%
inhibition at 30 µM [3]: 51 to 75%

COCCNc1nc(-c2nccn2C)nc2sc(-c3ccccc3)c(-c3ccccn3)c12 [drawing 2449]
inhibition at 30 µM [2]: 76 to 100%
inhibition at 30 µM [3]: 76 to 100%
